Values joined by “and” are separate entries in the source; they are usually repeats but may differ in a detail not shown here. Equal entries are not always repeated.
Key:
[1] = system: RAMOS human Burkitt's lymphoma cells; assay: Subcutaneously (SC)-implanted human Ramos Burkitt's B-cell lymphoma tumor growth model; format: in vivo, SCID mice; details: for Increased time to 4000 mg [%] / Reduced tumor growth at study Day 38 (%): control 0; for Tumor Volume at study day 38, Average: vehicle average 4014
[2] = system: RAMOS human lymphoma cells; format: in vivo, SCID mice; details: MOR208 3 mg/kg i.v. twice weekly for 3 weeks; FLU 125 mg/kg i.p. once daily Day 0-5; combination of both; vehicle 18.5
MEC-1 cells = assay: ADCC / cytotoxicity assay: killing of MEC-1 cells by MOR208 and fludarabine alone and in combination; format: cell-based, human; details: for normalized specific killing: background subtracted, combination set to 1, Fludarabine 18 μg/ml, MOR208 66 pM; for % dead cells: raw data, MOR208 66 pm, FLU 18 μg/ml, 72 h pre-incubation, E:T 30:1, 4 h
Human CD19 = target: T1, Human CD19 (human, UniProt P15391 20-556); assay: cell-based or functional assay
T1 sequence: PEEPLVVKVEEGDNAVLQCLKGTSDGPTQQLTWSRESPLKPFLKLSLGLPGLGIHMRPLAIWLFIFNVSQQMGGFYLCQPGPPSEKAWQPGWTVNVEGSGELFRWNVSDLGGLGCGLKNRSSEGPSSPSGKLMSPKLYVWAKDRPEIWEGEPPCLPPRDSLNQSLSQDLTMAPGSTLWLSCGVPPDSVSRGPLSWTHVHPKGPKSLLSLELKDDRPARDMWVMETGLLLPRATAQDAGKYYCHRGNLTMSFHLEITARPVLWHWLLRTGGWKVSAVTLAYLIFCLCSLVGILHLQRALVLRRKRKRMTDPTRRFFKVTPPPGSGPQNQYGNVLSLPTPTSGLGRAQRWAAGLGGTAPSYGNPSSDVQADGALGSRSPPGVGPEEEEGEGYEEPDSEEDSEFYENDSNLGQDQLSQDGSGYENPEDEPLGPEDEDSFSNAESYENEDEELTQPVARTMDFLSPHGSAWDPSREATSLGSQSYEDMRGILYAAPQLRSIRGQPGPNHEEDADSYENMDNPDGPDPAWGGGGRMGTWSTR

[3] = MOR208 10 mg/kg, FLU 125 mg/kg, combination of MOR208 and FLU 125
[4] = MOR208 10 mg/kg, Fludarabine 125 mg/kg IP Q1Dx5, combination MOR208/FLU 125
[5] = MOR208 10 mg/kg, Fludarabine 125 mg/kg, MOR208 + FLU 125 combination
[6] = Experiment 1 (PBMC donor 1), control RefMab33
[7] = Experiment 2 (PBMC donor 2), control RefMab33
[8] = Experiment 3 (PBMC donor 3), control PBMCs alone

## Fludarabine [reference compound]
[1]; FLU 250 mg/kg
  Increased time to 4000 mg [%]: 30.19%
  Reduced tumor growth at study Day 38 (%): 64.8%
[1]; Fludarabine 250 mg/kg
  Increased time to 4000 mg [%], normalized to Fractional Product combination = 1: 0.8
  Reduced tumor growth at study Day 38 (%), normalized to Fractional Product combination = 1: 0.9
[1]; Fludarabine 250 mg/kg IP Q1Dx5
  Tumor Volume at study day 38, Average: 1413 mm^3
[1]; [3]
  Increased time to 4000 mg [%]: 22.37%
  Reduced tumor growth at study Day 38 (%): 48.3%
[1]; [4]
  Tumor Volume at study day 38, Average: 2073 mm^3
[1]; [5]
  Increased time to 4000 mg [%], normalized to Fractional Product combination = 1: 0.62
  Reduced tumor growth at study Day 38 (%), normalized to Fractional Product combination = 1: 0.75
[2]
  Median Survival Time: 22 days
MEC-1 cells; Average of Experiments 1-3
  normalized specific killing: 0.7
MEC-1 cells; [6]
  % dead cells: 36.39%
MEC-1 cells; Experiment 1
  normalized specific killing: 0.6
MEC-1 cells; [7]
  % dead cells: 38.48%
MEC-1 cells; Experiment 2
  normalized specific killing: 0.7
MEC-1 cells; [8]
  % dead cells: 57.27%
MEC-1 cells; Experiment 3
  normalized specific killing: 0.8
MEC-1 cells; FLU, test concentration stated to be near or at the EC50
  EC50 (MEC-1 cell killing): ~18 µg/mL

B1: MOR208: anti-CD19 antibody; variable domains in FIG. 3, Fc regions in FIG. 4 (antibody)
heavy: EVQLVESGGGLVKPGGSLKLSCAASGYTFTSYVMHWVRQAPGKGLEWIGYINPYNDGTKYNEKFQGRVTISSDKSISTAYMELSSLRSEDTAMYYCARGTYYYGTRVFDYWGQGTLVTVSSASTKGPSVFPLAPSSKSTSGGTAALGCLVKDYFPEPVTVSWNSGALTSGVHTFPAVLQSSGLYSLSSWTVPSSSLGTQTYICNVNHKPSNTKVDKKVEPKSCDKTHTCPPCPAPELLGGPDVFLFPPKPKDTLMISRTPEVTCVVVDVSHEDPEVQFNWYVDGVEVHNAKTKPREEQFNSTFRVVSVLTVVHQDWLNGKEYKCKVSNKALPAPEEKTISKTKGQPREPQVYTLPPSREEMTKNQVSLTCLVKGFYPSDIAVEWESNGQPENNYKTTPPMLDSDGSFFLYSKLTVDKSRWQQGNVFSCSVMHEALHNHYTQKSLSLSPGK
light: DIVMTQSPATLSLSPGERATLSCRSSKSLQNVNGNTYLYWFQQKPGQSPQLLIYRMSNLNSGVPDRFSGSGSGTEFTLTISSLEPEDFAVYYCMQHLEYPITFGAGTKLEIKRTVAAPSVFIFPPSDEQLKSGTASVVCLLNNFYPREAKVQWKVDNALQSGNSQESVTEQDSKDSTYSLSSTLTLSKADYEKHKVYACEVTHQGLSSPVTKSFNRGEC
[1]; [3]
  Increased time to 4000 mg [%]: 17.52%
  Reduced tumor growth at study Day 38 (%): 38.5%
[1]; [4]
  Tumor Volume at study day 38, Average: 2468 mm^3
[1]; [5]
  Increased time to 4000 mg [%], normalized to Fractional Product combination = 1: 0.48
  Reduced tumor growth at study Day 38 (%), normalized to Fractional Product combination = 1: 0.57
[1]; single values (Group 1-8), MOR208 10 mg/kg, Fludarabine 125 mg/kg IP Q1Dx5, combination MOR208/FLU 125
  Tumor Volume at study day 38: 1764 mm^3 and 1862 mm^3 and 3402 mm^3 and 2560 mm^3 and 2816 mm^3 and 2138 mm^3 and 2025 mm^3 and 3179 mm^3
[2]
  Median Survival Time: 23.5 days
MEC-1 cells; Average of Experiments 1-3
  normalized specific killing: 0.5
MEC-1 cells; [6]
  % dead cells: 35.2%
MEC-1 cells; Experiment 1
  normalized specific killing: 0.6
MEC-1 cells; [7]
  % dead cells: 29.8%
MEC-1 cells; Experiment 2
  normalized specific killing: 0.4
MEC-1 cells; [8]
  % dead cells: 47.01%
MEC-1 cells; Experiment 3
  normalized specific killing: 0.5

B2: MOR208 (antibody, human IgG1, kappa, V domains shown)
VH: EVQLVESGGGLVKPGGSLKLSCAASGYTFTSYVMHWVRQAPGKGLEWIGYINPYNDGTKYNEKFQGRVTISSDKSISTAYMELSSLRSEDTAMYYCARGTYYYGTRVFDYWGQGTLVTVSS
VL: DIVMTQSPATLSLSPGERATLSCRSSKSLQNVNGNTYLYWFQQKPGQSPQLLIYRMSNLNSGVPDRFSGSGSGTEFTLTISSLEPEDFAVYYCMQHLEYPITFGAGTKLEIKR
Human CD19
  EC50 of MEC-1 cell killing (ADCC): ~0.066 nM

Source: US20240424012A1, “COMBINATIONS AND USES THEREOF” (Incyte Corporation, priority 2011, published 2024)
